Where a SMILES comes first, the peptide text is derived from it. The star is where a group is joined. Cbz = O=C(OCc1ccccc1)*
Columns and labels:
[1] = tested on: PGC-1β; assay: PGC-1β protein and mRNA level in treated HEK 293 cells; assay type: cell-based
Experimental: Firstly, synoviolin knock down was performed by siRNA in HEK 293 cells. Synoviolin siRNA was prepared in accordance with already reported article (see, Yamasaki, S., et al. (2007). Cytoplasmic destruction of p53 by the endoplasmic reticulum-resident ubiquitin ligase ‘Synoviolin’. EMBO J 26, 113-122.). Transfection of siRNA into cells was performed in accordance with a protocol with Lipofectamine 2000 (Invitrogen, Corporation).
When a protein level of the PGC-1β was investigated as a confirmation, the protein level of the PGC-1β was doubled in LS-102 treated cells. On the other hand, the expression of PGC-1β mRNA was not changed by the LS-102 treatment.

[2] = target: T1, binding between synoviolin and PGC-1β (Homo sapiens, UniProt Q86TM6, E545G); assay: in vitro binding assay between synoviolin and PGC-1β (Western blot)
T1 construct: GST fusion synoviolin which lack transmembrane domain (GST syno ΔTM); made in house
T1 sequence (Q86TM6 236-617 E545G): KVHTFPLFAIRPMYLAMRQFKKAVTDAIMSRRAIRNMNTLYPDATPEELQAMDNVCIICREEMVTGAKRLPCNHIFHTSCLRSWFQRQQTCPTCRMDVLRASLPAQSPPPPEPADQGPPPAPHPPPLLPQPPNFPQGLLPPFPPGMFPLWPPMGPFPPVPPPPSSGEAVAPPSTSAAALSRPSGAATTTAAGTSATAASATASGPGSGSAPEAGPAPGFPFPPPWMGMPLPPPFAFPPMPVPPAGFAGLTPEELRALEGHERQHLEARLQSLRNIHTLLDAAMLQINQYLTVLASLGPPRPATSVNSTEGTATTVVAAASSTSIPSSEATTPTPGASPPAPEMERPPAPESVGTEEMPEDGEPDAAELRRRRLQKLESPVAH
Experimental: In order to investigate an influence on PGC-1β functions by inhibitor of E3 ubiquitin ligase activity of synoviolin, an effect on inhibition of binding between the synoviolin and the PGC-1β was firstly investigated. Specifically, in a usual binding assay using MBP-PGC-1β-His protein and GST-Syno ΔTM protein, LS-102 (PARMACOPIEA, Corporation) was added and these proteins were incubated for 12 hours. Then, these proteins were separated by SDS-PAGE of 12% gel concentration, and Western blot was performed. Anti-GST antibody diluted 2500 folds were used as a primary antibody, and anti-rat HRP diluted 10000 folds was used as a secondary antibody.
In order to obtain a substance which inhibits the binding between synoviolin and PGC-1β, with respect to the substances shown in the following table 2 included in screening library relating to E3 ubiquitin ligase, in order to examine influence on the binding between synoviolin and PGC-1β, in vitro binding assays similar to the examples 3 to 6 were performed. The results were shown in FIGS. 11-1, 11-2, 11-3, and 11-4. In this example, 2 μg of PGC-1β (see FIG. 4) and 2 μg of GST-Syno ΔTM (see FIG. 6) were used.
The binding assay was performed using the following assay system. 2 μg of MBP-PGC-1β His (1-367aa) and 2 μg of the modified synoviolin fused to GST were bound for 12 hours in a buffer (20 mM Tris-HCl pH 8.0, 100 mM NaCl, 1 mM EDTA. 0.1% NP-40, 5% glucose 1, and protease inhibitors) to detect PGC-1β using anti-PGC-1β antibody.

[3] = tested on: mitochondria in adipose tissue cells; assay: mitochondria in adipose tissue of mice given LS-102 (electron micrographs); assay type: in vivo, C57BL/6J mice; conditions: 50 mg/kg body weight per day intraperitoneally, fifty seventh day, vs DMSO, FIG. 18
Experimental: 50 mg/kg body weight of LS-102 per day or solvent (DMSO) as a control was administered intraperitoneally to 7 to 8-week-old C57BL/6J mice to observe adipose tissue slices of the mice of fifty seventh day after the administration using a microscope. […] Magnifications of the electron microscope were 2,500 folds and 10,000 folds and the white bars indicate scale bars (2 μm in the 2,500 folds and 500 nm in the 10,000 folds).

[4] = tested on: PGC-1β; assay: PGC-1β protein and mRNA level in skin fibroblasts from syno cKO mice (Western blot, real-time PCR); assay type: cell-based, mouse
Experimental: Skin fibroblasts from syno CKO mice were cultivated in DMEM medium and treated by tamoxifen (Tam) or solvent (DMSO) for 48 hours. Cell extracts or total RNA were collected, each was used for western blot and real-time PCR, respectively.
Further, in order to investigate whether […] was involved in synoviolin-mediated degradation of PGC-1β in cells, after the treatment by tamoxifen or solvent in the above experiment, 10 μM of MG-132, which is a proteasome inhibitor, was added and treated for two hours, and then, similar experiment was performed.

[5] = tested on: PPRE ×3-TK-luc reporter (PGC-1β coactivator function); assay: Luciferase assay with PPRE ×3-TK-luc reporter in HEK-293 cells; assay type: cell-based
Experimental: Specifically, control siRNA or Syno siRNA was temporarily transfected in HEK-293 cells. Reporter plasmid containing PPAR binding sites (PPRE ×3-TK-luc), CMV-β-gal expression construct, or siRNA was temporarily transfected in HEK-293 cells. After 16 hours, DMSO or Wy-14643 was treated for 6 hours, and then Luciferase assay was performed (FIG. 9B).
After 16 hours from the transfection, cells were treated with solvent (DMSO) or Wy-14643 for 6 hours and the Luciferase assay was performed.
The luciferase assay was performed similar to the example 9 except for using 5 μM of LS-102, 0.1 μM and 0.5 μM of 348, 0.1 μM and 5 μM of 349, and 5 μM of 351 and 355 instead of transfecting the Syno siRNA in the example 9. The same volume of DMSO, which is a solvent of each compound, was added as a control.

[6] = tested on: mitochondria in HEK-293 cells; assay: electron microscope observation of mitochondria in treated cells; assay type: cell-based; conditions: 1 μM, observed after 72 hours, FIG. 13
Experimental: The observation of mitochondria was performed similar to the example 9 except for observing after 72 hours from adding 1 μM of 348, 349, 351 and 355 to cells instead of transfecting the Syno siRNA in the example 9.

[7] = target: T2, PGC-1β ubiquitination by synoviolin (SYVN1) (Homo sapiens, UniProt Q86TM6); assay: in vitro ubiquitination of PGC-1β by synoviolin (Western blot); assay type: biochemical; conditions: for inhibiting activity of the PGC-1β ubiquitination, concentration dependency: 1 μM and 10 μM, FIG. 21; for polyubiquitination of PGC-1β: compared to control group (DMSO), FIG. 11-4
T2 construct: MBP-Syno ΔTM-His means synoviolin in which transmembrane domain has been deleted; His tag (C)
T2 sequence (Q86TM6 246-617 limits assumed): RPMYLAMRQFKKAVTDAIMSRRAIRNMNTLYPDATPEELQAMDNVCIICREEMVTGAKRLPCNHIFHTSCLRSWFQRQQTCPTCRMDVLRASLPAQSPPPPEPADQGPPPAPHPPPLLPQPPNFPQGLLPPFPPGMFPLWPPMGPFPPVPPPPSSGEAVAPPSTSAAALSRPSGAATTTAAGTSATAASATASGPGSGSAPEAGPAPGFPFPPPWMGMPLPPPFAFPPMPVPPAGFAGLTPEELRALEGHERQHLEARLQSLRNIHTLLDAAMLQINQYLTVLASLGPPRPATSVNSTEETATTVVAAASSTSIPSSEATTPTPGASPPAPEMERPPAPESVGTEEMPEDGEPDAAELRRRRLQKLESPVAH
Experimental: The ubiquitin assay was performed using the following assay system. E1-His 125 ng, UbcH5C 150 ng, MBP-SYVN1 ΔTM-His 150 ng, GST-PGC-1β (1-367 aa; GST-P5), and HA-ubiquitin (HA-Ub) 750 ng were reacted at 30° C. for 2 hours in a buffer (50 mM Tris-HCL pH 7.5, 5 mM MgCl2, 0.6 mM DTT, and 2 mM ATP) to be ubiquitinated. Thereafter, the ubiquitinated proteins were bound to Glutathione Sepharose in GST washing buffer (50 mM Tris-HCl pH 7.5, 0.5 M NaCl, 1% Triton X, 1 mM EDTA, 1 mM DTT, and protease inhibitors). After washing with the GST washing buffer, ubiquitination of PGC-1β was detected by Western blotting using anti-PGC-1β antibody and anti-HA antibody.
In order to examine the concentration dependency of the inhibiting activity of test substances 348 and 349 in PGC-1β ubiquitination by synoviolin (SYVN1), the in vitro binding assay was performed in the same manner as described in Example 11.

[8] = target: T3, synoviolin protein (Homo sapiens, UniProt Q86TM6); conditions: disclosed in JP 2008-74753 A; cited from earlier work
T3 construct: MBP-Syno ΔTM-His means synoviolin in which transmembrane domain has been deleted; His tag (C)
T3 sequence (Q86TM6 246-617 limits assumed): as above

[9] = 2 μg PGC-1β and 2 μg GST-Syno ΔTM, FIGS. 11-1 to 11-4

CCNCCN(CC)c1nc(Nc2ccc3ncoc3c2)nc(N[C@@H](C)C2CCCCC2)n1 [LS-102]
protein level of the PGC-1β ([1]; LS-102 treated cells): doubled | expression of PGC-1β mRNA ([1]; LS-102 treatment): not changed | binding between synoviolin and PGC-1β ([2]; MBP-PGC-1β-His and GST-Syno ΔTM, incubated 12 hours, FIG. 10): has an effect on inhibition of binding | number and volume density of mitochondria in the adipose tissue cells [3]: increases in number and volume density of mitochondria

CC(C)C[C@@H](C=O)NC(=O)[C@H](CC(C)C)NC(=O)[C@H](CC(C)C)NC(=O)OCc1ccccc1 [MG-132] (Cbz-Leu-Leu-Leu-aldehyde)
protein level of PGC-1β ([4]; 10 μM MG-132 for two hours, solvent-treated (DMSO-treated) skin fibroblasts): 1.6 folds | protein level of PGC-1β, additive effect of tamoxifen treatment and MG-132 ([4]; 10 μM MG-132 for two hours, tamoxifen-treated skin fibroblasts): 1.1 folds

CC/C(=C(\c1ccccc1)c1ccc(OCCN(C)C)cc1)c1ccccc1 [Tam]
protein level of PGC-1β ([4]; Tam treatment 48 hours (induces synoviolin knockout) vs DMSO, skin fibroblasts of syno cKO mice): 1.4 folds | mRNA level of PGC-1β ([4]; Tam treatment 48 hours, skin fibroblasts of syno cKO mice): no change

Cc1cccc(Nc2cc(Cl)nc(SCC(=O)O)n2)c1C [Wy-1463, reference compound]
PPRE ×3-TK-luc reporter activity ([5]; PPARα agonist treated for 6 hours vs DMSO, FIG. 9B): induced

O=C1C=CC(=O)c2c(O)ccc(O)c21 [compound 348]
number and size of mitochondria [6]: proliferation (increase in the number) of mitochondria or increase in size of mitochondria has been observed | binding between synoviolin and PGC-1β [2, 9]: inhibition of the binding | inhibiting activity of the PGC-1β ubiquitination, concentration dependency [7]: in 10 μM is higher than that in 1 μM | polyubiquitination of PGC-1β [7]: suppressed

O=C1C=CC(=O)c2c(O)cccc21 [compound 349]
number and size of mitochondria [6]: proliferation (increase in the number) of mitochondria or increase in size of mitochondria has been observed | binding between synoviolin and PGC-1β [2, 9]: inhibition of the binding | inhibiting activity of the PGC-1β ubiquitination, concentration dependency [7]: in 10 μM is higher than that in 1 μM | polyubiquitination of PGC-1β [7]: suppressed

CC1=CC(=O)c2ccccc2C1=O [compound 351]
luciferase activity ([5]; compounds instead of Syno siRNA (351: 5 μM), DMSO control, FIG. 12): lowered | binding between synoviolin and PGC-1β [2, 9]: enhances the binding

O=C1CCC(=O)c2c(O)cccc21 [compound 355]
number and size of mitochondria [6]: proliferation (increase in the number) of mitochondria or increase in size of mitochondria has been observed | binding between synoviolin and PGC-1β [2, 9]: inhibition of the binding

O=C1C=CC(=O)c2c(Cl)ccc(O)c21 [compound 358]
binding between synoviolin and PGC-1β [2, 9]: inhibition of the binding

CC1=CC(=O)c2c(O)cccc2C1=O [plumbagin, 2-methyl-5-hydroxy-1,4-naphthoquinone]
self-ubiquitination of synoviolin protein [8]: inhibit self-ubiquitination of synoviolin protein

O=c1c(O)c(-c2ccc(O)c(O)c2)oc2cc(O)cc(O)c12 [quercetin, 2-(3,4-dihydroxyphenyl)-3,5,7-trihydroxy-4H-1-benzopyrano-4-on, reference compound]
binding between synoviolin and PGC-1β [2, 9]: inhibition of the binding | self-ubiquitination of synoviolin protein [8]: inhibit self-ubiquitination of synoviolin protein
